# Measurements taken from US10208019B2, “GLP-1 receptor agonists and uses thereof” (Pfizer Inc., priority 2016, dated 2019).
# Where a name gives a salt, the structure may show the parent alone.
# How the values were obtained:
# human GLP-1R [1] = molecular target: human GLP-1R (Homo sapiens (Human), UniProt P43220, L260F); experiment: CHO GLP-1R Clone C6—Assay 2: HTRF cAMP cell-based functional agonist assay (low GLP-1R density); settings: for EC50: CHO GLP-1R Clone C6, cAMP HTRF, geometric mean; for Emax: read-out: Assay 2 Emax (%)
# Method: GLP-1R-mediated agonist activity was determined with a cell-based functional assay utilizing an HTRF (Homogeneous Time-Resolved Fluorescence) cAMP detection kit (cAMP HI Range Assay Kit; Cis Bio cat #62AM6PEJ) that measures cAMP levels in the cell. The method is a competitive immunoassay between native cAMP produced by the cells and exogenous cAMP labeled with the dye d2. The tracer binding is visualized by a mAb anti-cAMP labeled with Cryptate. The specific signal (i.e. energy transfer) is inversely proportional to the concentration of cAMP in either a standard or an experimental sample.
# The human GLP-1R coding sequence (NCBI Reference Sequence NP_002053.3, including naturally-occurring variant Leu260Phe) was subcloned into pcDNA5-FRT-TO and a clonal CHO cell line stably expressing a low receptor density was isolated using the Flp-In™ T-Rex™ System, as described by the manufacturer (ThermoFisher).
# Cells were removed from cryopreservation, re-suspended in 40 mL of Dulbecco's Phosphate Buffered Saline (DPBS-Lonza Cat #17-512Q) and centrifuged at 800×g for 5 min at 22° C. The DPBS was aspirated, and the cell pellet was re-suspended in 10 mL of complete growth medium (DMEM:F12 1:1 Mixture with HEPES, L-Gln, 500 mL (DMEM/F12 Lonza Cat #12-719F), 10% heat inactivated fetal bovine serum (Gibco Cat #16140-071), 5 mL of 100× Pen-Strep (Gibco Cat #15140-122), 5 mL of 100× L-Glutamine (Gibco Cat #25030-081), 700 μg/mL Hygromycin (Invitrogen Cat #10687010) and 15 μg/mL Blasticidin (Gibco Cat #R21001). A 1 mL sample of the cell suspension in growth media was counted on a Becton Dickinson ViCell to determine cell viability and cell count per mL. The remaining cell suspension was then adjusted with growth media to deliver 1600 viable cells per well using a Matrix Combi Multidrop reagent dispenser, and the cells were dispensed into a white 384 well tissue culture treated assay plate (Corning 3570). The assay plate was then incubated for 48 h at 37° C. in a humidified environment (95% O2, 5% CO2)
# Varying concentrations of each compound to be tested (in DMSO) were diluted in assay buffer [HBSS with Calcium/Magnesium (Lonza/BioWhittaker cat #10-527F)/0.1% BSA (Sigma Aldrich cat #A7409-1L)/20 mM HEPES (Lonza/BioWhittaker cat #17-737E)] containing 100 μM 3-isobutyl-1-methylxanthin (IBMX; Sigma cat #15879). The final DMSO concentration in the compound/assay buffer mixture is 1%.
# After 48 h, the growth media was removed from the assay plate wells, and the cells were treated with 20 μL of the serially diluted compound in assay buffer for 30 min at 37° C. in a humidified environment (95% O2, 5% CO2). Following the 30 min incubation, 10 μL of labeled d2 cAMP and 10 μL of anti-cAMP antibody (both diluted 1:20 in cell lysis buffer; as described in the manufacturer's assay protocol) were added to each well of the assay plate. The plates were then incubated at room temperature and after 60 minutes, changes in the HTRF signal were read with an Envision 2104 multi-label plate reader using excitation of 330 nm and emissions of 615 and 665 nm. Raw data were converted to nM cAMP by interpolation from a cAMP standard curve (as described in the manufacturer's assay protocol) and the percent effect was determined relative to a saturating concentration of the full agonist GLP-1 (1 μM) included on each plate. EC50 determinations were made from agonist dose response curves analyzed with a curve fitting program using a 4-parameter logistic dose response equation.
# human GLP-1R [2] = molecular target: human GLP-1R (Homo sapiens, UniProt P43220, G168S); experiment: CHO GLP-1R Clone H6—Assay 1: HTRF cAMP cell-based functional agonist assay (high GLP-1R density); settings: for EC50: read-out: Assay 1 EC50, CHO GLP-1R Clone H6, cAMP HTRF, geometric mean; for Emax: read-out: Assay 1 Emax (%), CHO GLP-1R Clone H6; for Emax / Assay 1 Emax (%): relative to saturating concentration of full agonist GLP-1 (1 μM), arithmetic mean; for Assay 1 Emax (%): CHO GLP-1R Clone H6
# Method: GLP-1R-mediated agonist activity was determined with a cell-based functional assay utilizing an HTRF (Homogeneous Time-Resolved Fluorescence) cAMP detection kit (cAMP HI Range Assay Kit; CisBio cat #62AM6PEJ) that measures cAMP levels in the cell. The method is a competitive immunoassay between native cAMP produced by the cells and exogenous cAMP labeled with the dye d2. The tracer binding is visualized by a mAb anti-cAMP labeled with Cryptate. The specific signal (i.e. energy transfer) is inversely proportional to the concentration of cAMP in either standard or experimental sample.
# The human GLP-1R coding sequence (NCBI Reference Sequence NP_002053.3, including naturally-occurring variant Gly168Ser) was subcloned into pcDNA3 (Invitrogen) and a cell line stably expressing the receptor was isolated (designated Clone H6).
# Cells were removed from cryopreservation, re-suspended in 40 mL of Dulbecco's Phosphate Buffered Saline (DPBS-Lonza Cat #17-512Q) and centrifuged at 800×g for 5 min at 22° C. The cell pellet was then re-suspended in 10 mL of growth medium [DMEM/F12 1:1 Mixture with HEPES, L-Gln, 500 mL (DMEM/F12 Lonza Cat #12-719F), 10% heat inactivated fetal bovine serum (Gibco Cat #16140-071), 5 mL of 100× Pen-Strep (Gibco Cat #15140-122), 5 mL of 100× L-Glutamine (Gibco Cat #25030-081) and 500 μg/mL Geneticin (G418) (Invitrogen #10131035)]. A 1 mL sample of the cell suspension in growth media was counted on a Becton Dickinson ViCell to determine cell viability and cell count per mL. The remaining cell suspension was then adjusted with growth media to deliver 2000 viable cells per well using a Matrix Combi Multidrop reagent dispenser, and the cells were dispensed into a white 384 well tissue culture treated assay plate (Corning 3570). The assay plate was then incubated for 48 hours at 37° C. in a humidified environment in 5% carbon dioxide.
# Varying concentrations of each compound to be tested (in DMSO) were diluted in assay buffer (HBSS with Calcium/Magnesium (Lonza/BioWhittaker cat #10-527F)/0.1% BSA (Sigma Aldrich cat #A7409-1L)/20 mM HEPES (Lonza/BioWhiftaker cat #17-737E) containing 100 μM 3-isobutyl-1-methylxanthin (IBMX; Sigma cat #15879). The final DMSO concentration is 1%.
# After 48 hours, the growth media was removed from the assay plate wells, and the cells were treated with 20 μL of the serially diluted compound in assay buffer for 30 minutes at 37° C. in a humidified environment in 5% carbon dioxide. Following the 30 minute incubation, 10 μL of labeled d2 cAMP and 10 μL of anti-cAMP antibody (both diluted 1:20 in cell lysis buffer; as described in the manufacturer's assay protocol) were added to each well of the assay plate. The plates were then incubated at room temperature and after 60 minutes, changes in the HTRF signal were read with an Envision 2104 multi-label plate reader using excitation of 330 nm and emissions of 615 and 665 nm. Raw data were converted to nM cAMP by interpolation from a cAMP standard curve (as described in the manufacturer's assay protocol) and the percent effect was determined relative to a saturating concentration of the full agonist GLP-17-36 (1 μM) included on each plate. EC50 determinations were made from agonist dose-response curves analyzed with a curve fitting program using a 4-parameter logistic dose response equation.
# [3] = CHO GLP-1R Clone C6, relative to saturating concentration of full agonist GLP-1 (1 μM), arithmetic mean
# Sequence of human GLP-1R (Homo sapiens, UniProt P43220, G168S) (P43220 24-463 G168S limits assumed): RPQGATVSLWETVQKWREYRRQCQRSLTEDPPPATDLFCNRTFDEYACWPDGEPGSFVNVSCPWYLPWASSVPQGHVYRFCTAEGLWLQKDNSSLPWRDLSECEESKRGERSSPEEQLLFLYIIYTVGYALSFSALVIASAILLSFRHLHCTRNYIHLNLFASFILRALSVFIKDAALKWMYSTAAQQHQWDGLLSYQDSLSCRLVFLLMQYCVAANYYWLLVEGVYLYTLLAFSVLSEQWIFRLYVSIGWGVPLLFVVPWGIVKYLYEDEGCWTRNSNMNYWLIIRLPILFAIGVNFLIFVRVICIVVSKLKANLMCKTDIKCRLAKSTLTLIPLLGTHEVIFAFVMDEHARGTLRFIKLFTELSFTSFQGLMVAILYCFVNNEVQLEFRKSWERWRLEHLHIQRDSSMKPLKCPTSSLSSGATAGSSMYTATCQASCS
# Sequence of human GLP-1R (Homo sapiens (Human), UniProt P43220, L260F) (P43220 24-463 L260F): as the sequence (P43220 24-463 G168S limits assumed) above, with S145G, L237F counted along it
EC50 (human GLP-1R [1]) [nM],Emax (human GLP-1R [1]; [3]) [%],EC50 (human GLP-1R [2]) [nM],Emax (human GLP-1R [2]) [%],Structure (SMILES),Assay 1 Emax (%) (human GLP-1R [2]),Assay 2 Emax (%) (human GLP-1R [1]; [3])
3000,92,110,71,"COCCn1c(CN2CCC(c3cccc(OCc4ccc(C#N)cc4)n3)CC2)nc2cc(F)c(C(=O)O)cc21 [Example 2A-14, 2-[(4-{6-[(4-cyanobenzyl)oxy]pyridin-2-yl}piperidin-1-yl)methyl]-5-fluoro-1-(2-methoxyethyl)-1H-benzimidazole-6-carboxylic acid]",,
350,77,18,84,"COCCn1c(CN2CCC(c3cccc(OCc4cc(F)c(Cl)cc4F)n3)CC2)nc2ccc(C(=O)O)cc21 [Example 8A-03, 2-((4-(6-((4-chloro-2,5-difluorobenzyl)oxy)pyridin-2-yl)piperidin-1-yl)methyl)-1-(2-methoxyethyl)-1H-benzo[d]imidazole-6-carboxylic acid]",,
3.8,93,0.3,93,"CCn1cncc1Cn1c(CN2CCN(c3cccc(OCc4ccc(C#N)cc4F)n3)CC2)nc2ccc(C(=O)O)cc21 [Example 10A-35, 2-[(4-{6-[(4-cyano-2-fluorobenzyl)oxy]pyridin-2-yl}piperazin-1-yl)methyl]-1-[(1-ethyl-1H-imidazol-5-yl)methyl]-1H-benzimidazole-6-carboxylic acid]",,
45,95,2.4,87,"Cn1cncc1Cn1c(CN2CCC(c3cccc(OCc4ccc(F)cc4F)n3)CC2)nc2ccc(C(=O)O)cc21 [Example 1A-17, 2-[(4-{6-[(2,4-difluorobenzyl)oxy]pyridin-2-yl}piperidin-1-yl)methyl]-1-[(1-methyl-1H-imidazol-5-yl)methyl]-1H-benzimidazole-6-carboxylic acid]",,
10,120,0.99,95,"C[C@H]1CN(c2cccc(OCc3ccc(C#N)cc3F)n2)CCN1Cc1nc2ccc(C(=O)O)nc2n1C[C@@H]1CCO1 [Example 10A-09, 2-{[(2S)-4-{6-[(4-cyano-2-fluorobenzyl)oxy]pyridin-2-yl}-2-methylpiperazin-1-yl]methyl}-3-[(2S)-oxetan-2-ylmethyl]-3H-imidazo[4,5-b]pyridine-5-carboxylic acid]",,
13,110,0.33,82,"Cn1cncc1Cn1c(CN2CCN(c3cccc(OCc4ccc(Cl)cc4F)n3)CC2)nc2ccc(C(=O)O)cc21 [Example 10A-36, 2-[(4-{6-[(4-chloro-2-fluorobenzyl)oxy]pyridin-2-yl}piperazin-1-yl)methyl]-1-[(1-methyl-1H-imidazol-5-yl)methyl]-1H-benzimidazole-6-carboxylic acid]",,
48,79,4,64,"N#Cc1ccc(COc2cccc(C3CCN(Cc4nc5ccc(C(=O)O)cc5n4Cc4cnco4)CC3)n2)c(F)c1 [Example 10A-43, 2-[(4-{6-[(4-cyano-2-fluorobenzyl)oxy]pyridin-2-yl}piperidin-1-yl)methyl]-1-(1,3-oxazol-5-ylmethyl)-1H-benzimidazole-6-carboxylic acid]",,
910,94,81,77,"Cn1c(CN2CCC(c3cccc(OCc4ccc(Cl)cc4F)n3)CC2)nc2ccc(C(=O)O)cc21 [Example 1A-01, 2-((4-(6-((4-Chloro-2-fluorobenzyl)oxy)pyridin-2-yl)piperidin-1-yl)methyl)-1-methyl-1H-benzo[d]imidazole-6-carboxylic acid hydrochloride]",,
10,120,0.96,100,"N#Cc1ccc(COc2cccc(N3CCN(Cc4nc5ccc(C(=O)O)nc5n4C[C@@H]4CCO4)CC3)n2)c(F)c1 [Example 10A-77, 2-[(4-{6-[(4-cyano-2-fluorobenzyl)oxy]pyridin-2-yl}piperazin-1-yl)methyl]-3-[(2S)-oxetan-2-ylmethyl]-3H-imidazo[4,5-b]pyridine-5-carboxylic acid]",,
24,91,1.5,73,"O=C(O)c1ccc2nc(CN3CCN(c4cccc(OCc5ccc(Cl)cc5F)n4)CC3)n(Cc3ncco3)c2c1 [Example 10A-33, 2-[(4-{6-[(4-chloro-2-fluorobenzyl)oxy]pyridin-2-yl}piperazin-1-yl)methyl]-1-(1,3-oxazol-2-ylmethyl)-1H-benzimidazole-6-carboxylic acid]",,
110,89,7.9,95,"COCCn1c(CN2CCC(c3cccc(OCc4ccc(Cl)cc4F)n3)CC2)nc2ncc(C(=O)O)cc21 [Example 2A-02, 2-((4-(6-((4-Chloro-2-fluorobenzyl)oxy)pyridin-2-yl)piperidin-1-yl)methyl)-1-(2-methoxyethyl)-1H-imidazo[4,5-b]pyridine-6-carboxylic acid hydrochloride]",,
330,96,25,78,"O=C(O)c1ccc2nc(CN3CCC(c4cccc(OCc5ccc(Cl)cc5F)n4)CC3)n(Cc3c[nH]nn3)c2c1 [Example 11A-23, 2-[(4-{6-[(4-chloro-2-fluorobenzyl)oxy]pyridin-2-yl}piperidin-1-yl)methyl]-1-(1H-1,2,3-triazol-4-ylmethyl)-1H-benzimidazole-6-carboxylic acid]",,
4100,110,150,86,"COC[C@@H]1C[C@H]1Cn1c(CN2CCC(c3cccc(OCc4ccc(Cl)cc4F)n3)CC2)nc2ccc(C(=O)O)cc21 [Example 1A-30, 2-[(4-{6-[(4-chloro-2-fluorobenzyl)oxy]pyridin-2-yl}piperidin-1-yl)methyl]-1-{[(1R,2R)-2-(methoxymethyl)cyclopropyl]methyl}-1H-benzimidazole-6-carboxylic acid]",,
130,94,5.7,78,N#Cc1ccc(COc2cccc(C3CCN(Cc4nc5ccc(C(=O)O)nc5n4Cc4cnco4)CC3)n2)c(F)c1 [Example 10A-24],,
400,100,18,88,CCn1cnnc1Cn1c(CN2CCN(c3cccc(OCc4ccc(Cl)cc4F)n3)C[C@@H]2C)nc2ccc(C(=O)O)cc21 [Example 10A-21],,
14,82,1.5,86,"Cn1cncc1Cn1c(CN2CCC(c3cccc(OCc4ccc(C#N)cc4F)n3)CC2)nc2ccc(C(=O)O)cc21 [Example 1A-16, 2-[(4-{6-[(4-cyano-2-fluorobenzyl)oxy]pyridin-2-yl}piperidin-1-yl)methyl]-1-[(1-methyl-1H-imidazol-5-yl)methyl]-1H-benzimidazole-6-carboxylic acid]",,
51,95,2.9,79,Cn1cncc1Cn1c(CN2CCC(c3cccc(OCc4ccc(C#N)cc4F)n3)CC2)nc2ccc(C(=O)O)nc21 [Example 10A-76],,
7.4,94,0.34,78,"N#Cc1ccc(COc2cccc(N3CCN(Cc4nc5ccc(C(=O)O)cc5n4C[C@@H]4CCO4)CC3)n2)c(F)c1 [Example 5A-01, 2-[(4-{6-[(4-Cyano-2-fluorobenzyl)oxy]pyridin-2-yl}piperazin-1-yl)methyl]-1-[(2S)-oxetan-2-ylmethyl]-1H-benzimidazole-6-carboxylic acid]",,
11,100,0.71,81,"N#Cc1ccc(COc2nc(C3CCN(Cc4nc5ccc(C(=O)O)cc5n4C[C@@H]4CCO4)CC3)ccc2F)c(F)c1 [Example 10A-54, 2-[(4-{6-[(4-cyano-2-fluorobenzyl)oxy]-5-fluoropyridin-2-yl}piperidin-1-yl)methyl]-1-[(2S)-oxetan-2-ylmethyl]-1H-benzimidazole-6-carboxylic acid]",,
35,89,1.5,74,"N#Cc1ccc(COc2cccc(N3CCN(Cc4nc5ccc(C(=O)O)cc5n4Cc4cnco4)CC3)n2)c(F)c1 [Example 10A-61, 2-[(4-{6-[(4-cyano-2-fluorobenzyl)oxy]pyridin-2-yl}piperazin-1-yl)methyl]-1-(1,3-oxazol-5-ylmethyl)-1H-benzimidazole-6-carboxylic acid]",,
4400,110,110,68,O=C(O)c1ccc2nc(CN3CCC(c4cccc(OCc5ccc(Cl)cc5F)n4)CC3)n(CCN3CCCC3=O)c2c1 [Example 10A-12],,
360,89,30,77,"O=C(O)c1ccc2nc(CN3CCC(c4cccc(OCc5ccc(Cl)cc5F)n4)CC3)n(Cc3nnc[nH]3)c2c1 [Example 11A-25, 2-[(4-{6-[(4-chloro-2-fluorobenzyl)oxy]pyridin-2-yl}piperidin-1-yl)methyl]-1-(4H-1,2,4-triazol-3-ylmethyl)-1H-benzimidazole-6-carboxylic acid]",,
2100,71,170,,"Cn1c(CN2CCC(c3cccc(OCc4ccc(Cl)cc4)n3)CC2)nc2ccc(C(=O)O)cc21 [Example 9A-07, 2-[(4-{6-[(4-chlorobenzyl)oxy]pyridin-2-yl}piperidin-1-yl)methyl]-1-methyl-1H-benzimidazole-6-carboxylic acid]",78,

Structure (SMILES),EC50 (human GLP-1R [1]) [nM],Emax (human GLP-1R [1]; [3]) [%],EC50 (human GLP-1R [2]) [nM],Emax (human GLP-1R [2]) [%],Assay 1 Emax (%) (human GLP-1R [2]),Assay 2 Emax (%) (human GLP-1R [1]; [3])
"C[C@H]1CN(c2cccc(OCc3ccc(C#N)cc3F)n2)CCN1Cc1nc2ccc(C(=O)O)cc2n1CC1CCCO1 (single isomer, unassigned; diastereomer 1) [Example 14A-11]",140,,7,,65,71
